Patent US8501446B2 (Vertex Pharmaceuticals Incorporated, priority 2004, dated 2013)

Legend:
ROCK I (AA 6-553) = biological target: T1, ROCK I (AA 6-553) (Homo sapiens, UniProt Q13464); assay: ROCK inhibition assay, standard coupled enzyme system ("Enzyme"); format: biochemical; conditions: enzyme-linked assay
T1 construct: ROCK I (AA 6-553)
Description: Compounds were screened for their ability to inhibit ROCK I (AA 6-553) activity using a standard coupled enzyme system (Fox et al. (1998) Protein Sci. 7, 2249). Reactions were carried out in a solution containing 100 mM HEPES (pH 7.5), 10 mM MgCl2, 25 mM NaCl, 2 mM DTT and 1.5% DMSO. Final substrate concentrations in the assay were 45 μM ATP (Sigma Chemicals, St Louis, Mo.) and 200 μM peptide (American Peptide, Sunnyvale, Calif.). Reactions were carried out at 30° C. and 45 nM ROCK L. Final concentrations of the components of the coupled enzyme system were 2.5 mM phosphoenolpyruvate, 350 μM NADH, 30 μg/ml pyruvate kinase and 10 μg/ml lactate dehydrogenase.

[1] = biological target: T2, full length Aurora-A (AA 1-403) (Homo sapiens, UniProt O14965); assay: Aurora-A inhibition assay, standard coupled enzyme system; format: biochemical; conditions: average Ki if more than one value determined
T2 construct: full length Aurora-A (AA 1-403)
T2 sequence (O14965 1-403): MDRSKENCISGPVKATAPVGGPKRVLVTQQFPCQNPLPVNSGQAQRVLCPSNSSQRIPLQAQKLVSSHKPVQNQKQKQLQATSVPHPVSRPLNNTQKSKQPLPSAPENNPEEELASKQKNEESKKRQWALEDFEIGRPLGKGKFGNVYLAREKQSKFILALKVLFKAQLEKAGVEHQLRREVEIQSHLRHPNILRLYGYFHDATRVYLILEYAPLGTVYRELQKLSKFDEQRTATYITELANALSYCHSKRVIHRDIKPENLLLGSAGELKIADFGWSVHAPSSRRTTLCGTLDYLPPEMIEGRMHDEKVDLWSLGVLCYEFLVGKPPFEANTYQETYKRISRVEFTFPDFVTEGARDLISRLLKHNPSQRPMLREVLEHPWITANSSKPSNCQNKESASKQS
Description: Compounds were screened for their ability to inhibit full length Aurora-A (AA 1-403) activity using a standard coupled enzyme system (Fox et al., Protein Sci. 7, pp. 2249 (1998)). Reactions were carried out in a solution containing 100 mM HEPES (pH 7.5), 10 mM MgCl2, 25 mM NaCl, 300 μM NADH, 1 mM DTT and 3% DMSO. Final substrate concentrations in the assay were 200 μM ATP (Sigma Chemicals, St Louis, Mo.) and 800 μM peptide (LRRASLG, American Peptide, Sunnyvale, Calif.). Reactions were carried out at 30° C. and 35 nM Aurora-A. Final concentrations of the components of the coupled enzyme system were 2.5 mM phosphoenolpyruvate, 200 μM NADH, 60 μg/ml pyruvate kinase and 20 μg/ml lactate dehydrogenase.
An assay stock buffer solution was prepared containing all of the reagents listed above with the exception of ATP and the test compound of interest. The assay stock buffer solution (60 μl) was incubated in a 96 well plate with 2 μl of the test compound of interest at final concentrations spanning 0.002 μM to 30 μM at 30° C. for 10 min. Typically, a 12 point titration was conducted by preparing serial dilutions (from 1 mM compound stocks) with DMSO of the test compounds in daughter plates. The reaction was initiated by the addition of 5 μl of ATP (final concentration 200 μM). Rates of reaction were obtained using a Molecular Devices Spectramax plate reader (Sunnyvale, Calif.) over 10 min at 30° C. The Ki values were determined from the rate data as a function of inhibitor concentration using computerized nonlinear regression (Prism 3.0, Graphpad Software, San Diego, Calif.). Aurora-C activity was screened in a similar manner using Aurora-C protein. Aurora-B activity was screened using a radioactive assay, such as described in Examples 1 and 2, but using Aurora-B protein.

T1 sequence (Q13464 6-553, species assumed): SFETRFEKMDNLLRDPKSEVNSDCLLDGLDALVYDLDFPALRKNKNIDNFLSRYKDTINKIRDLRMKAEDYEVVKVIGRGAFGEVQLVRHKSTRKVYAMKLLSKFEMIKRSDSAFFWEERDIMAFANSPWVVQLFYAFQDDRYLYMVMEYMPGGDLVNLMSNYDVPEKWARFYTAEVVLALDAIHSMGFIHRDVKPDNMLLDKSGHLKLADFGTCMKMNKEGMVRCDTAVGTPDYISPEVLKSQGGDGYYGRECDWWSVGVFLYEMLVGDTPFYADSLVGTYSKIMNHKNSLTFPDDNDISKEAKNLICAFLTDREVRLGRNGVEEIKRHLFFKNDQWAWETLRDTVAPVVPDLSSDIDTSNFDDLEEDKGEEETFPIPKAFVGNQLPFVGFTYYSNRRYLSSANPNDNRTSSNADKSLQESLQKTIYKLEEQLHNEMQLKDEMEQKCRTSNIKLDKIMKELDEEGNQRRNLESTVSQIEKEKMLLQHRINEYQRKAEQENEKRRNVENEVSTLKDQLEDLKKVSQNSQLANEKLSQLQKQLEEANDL

SMILES: Clc1cnc2[nH]cc(-c3cccc(NCc4ccc(Cl)c(Cl)c4)n3)c2c1 [Compound 251]
- Ki (ROCK I (AA 6-553)): 500 to 5000 nM
- Ki [1]: < 500 nM

SMILES: NC(=O)c1cccc(-c2c[nH]c3ncc(-c4ccc(F)cc4)cc23)c1 [Compound 228]
- Ki (ROCK I (AA 6-553)): < 500 nM
- Ki [1]: < 500 nM

SMILES: Cc1ccc(CNc2cccc(-c3c[nH]c4ncc(Cl)cc34)n2)cc1 [Compound 254]
- Ki (ROCK I (AA 6-553)): 500 to 5000 nM
- Ki [1]: < 500 nM

SMILES: C[C@H](Nc1nc(-c2c[nH]c3ncc(C#CCO)cc23)ncc1F)c1ccc(F)cc1 [Compound 378]
- Ki (ROCK I (AA 6-553)): 500 to 5000 nM
- Ki [1]: < 500 nM

SMILES: c1ccc(-c2cnc3[nH]cc(-c4cccc(N5CCCC5)n4)c3c2)cc1 [Compound 293]
- Ki (ROCK I (AA 6-553)): 500 to 5000 nM
- Ki [1]: 500 to 5000 nM

SMILES: Clc1cnc2[nH]cc(-c3cccc(N4CCNCC4)n3)c2c1 [Compound 267]
- Ki (ROCK I (AA 6-553)): < 500 nM
- Ki [1]: < 500 nM

SMILES: C[C@H](Nc1nc(-c2c[nH]c3ncc(Cl)cc23)ncc1F)C(=O)OC(C)(C)C [Compound 351]
- Ki (ROCK I (AA 6-553)): 500 to 5000 nM
- Ki [1]: < 500 nM

SMILES: C[C@H](Nc1nc(-c2c[nH]c3ncc(Br)cc23)ncc1F)c1ccc(F)cc1 [Compound 357]
- Ki (ROCK I (AA 6-553)): 500 to 5000 nM
- Ki [1]: < 500 nM

SMILES: Fc1cnc(-c2c[nH]c3ncc(Cl)cc23)nc1NCC1CCOC1 (stereo not drawn) [Compound 373]
- Ki (ROCK I (AA 6-553)): 500 to 5000 nM
- Ki [1]: < 500 nM

SMILES: C[C@H](Nc1nc(-c2c[nH]c3ncc(Cl)cc23)ncc1F)C(=O)NCCS(C)(=O)=O [Compound 389]
- Ki (ROCK I (AA 6-553)): 500 to 5000 nM
- Ki [1]: < 500 nM

SMILES: Fc1cnc(-c2c[nH]c3ncc(Cl)cc23)nc1NCc1ccncc1 [Compound 318]
- Ki (ROCK I (AA 6-553)): 500 to 5000 nM
- Ki [1]: < 500 nM

SMILES: C[C@H](Nc1nc(-c2c[nH]c3ncc(Cl)cc23)ncc1F)c1cccc(OCC(=O)O)c1 [Compound 336]
- Ki (ROCK I (AA 6-553)): 500 to 5000 nM
- Ki [1]: < 500 nM

SMILES: CC(C)(C)OC(=O)Nc1cccc(-c2c[nH]c3ncc(Cl)cc23)n1 [Compound 250]
- Ki (ROCK I (AA 6-553)): 500 to 5000 nM
- Ki [1]: < 500 nM

SMILES: COC(=O)c1cc(F)c(N[C@@H](C)c2ccc(F)cc2)nc1-c1c[nH]c2ncc(Cl)cc12 [Compound 396]
- Ki (ROCK I (AA 6-553)): 500 to 5000 nM
- Ki [1]: < 500 nM

SMILES: COCC#Cc1cnc2[nH]cc(-c3ncc(F)c(N[C@@H](C)c4ccc(F)cc4)n3)c2c1 [Compound 384]
- Ki (ROCK I (AA 6-553)): 500 to 5000 nM
- Ki [1]: < 500 nM

SMILES: Clc1cnc2[nH]cc(-c3cccc(Nc4ccccc4Cl)n3)c2c1 [Compound 263]
- Ki (ROCK I (AA 6-553)): 500 to 5000 nM
- Ki [1]: < 500 nM

SMILES: CCCCNC(=O)c1cccc(-c2c[nH]c3ncc(-c4ccccc4)cc23)c1 [Compound 220]
- Ki (ROCK I (AA 6-553)): 500 to 5000 nM
- Ki [1]: 500 to 5000 nM

SMILES: Clc1cnc2[nH]cc(-c3cccc(NCCc4ccccc4)n3)c2c1 [Compound 264]
- Ki (ROCK I (AA 6-553)): 500 to 5000 nM
- Ki [1]: < 500 nM

SMILES: Clc1cccc(Nc2cccc(-c3c[nH]c4ncc(Cl)cc34)n2)c1 [Compound 273]
- Ki (ROCK I (AA 6-553)): 500 to 5000 nM
- Ki [1]: < 500 nM

SMILES: O=Cc1ccc(-c2c[nH]c3ncc(-c4ccccc4)cc23)cc1 [Compound 229]
- Ki (ROCK I (AA 6-553)): 500 to 5000 nM
- Ki [1]: < 500 nM

SMILES: CS(=O)(=O)Nc1ccc(-c2cnc3[nH]cc(-c4ccc(C(N)=O)cc4)c3c2)cc1 [Compound 255]
- Ki (ROCK I (AA 6-553)): < 500 nM
- Ki [1]: < 500 nM

SMILES: CC(C)CNC(=O)[C@H](C)Nc1nc(-c2c[nH]c3ncc(Cl)cc23)ncc1F [Compound 364]
- Ki (ROCK I (AA 6-553)): 500 to 5000 nM
- Ki [1]: < 500 nM

SMILES: C[C@H](Nc1nc(-c2c[nH]c3ncc(C#N)cc23)ncc1F)c1ccc(F)cc1 [Compound 394]
- Ki (ROCK I (AA 6-553)): 500 to 5000 nM
- Ki [1]: < 500 nM

SMILES: Clc1cnc2[nH]cc(-c3cccc(Sc4ccccc4Cl)n3)c2c1 [Compound 248]
- Ki (ROCK I (AA 6-553)): 500 to 5000 nM
- Ki [1]: < 500 nM

SMILES: CC(Nc1nc(-c2c[nH]c3ncc(Cl)cc23)ncc1F)c1ccc(Cl)cc1 (stereo not drawn) [Compound 311]
- Ki (ROCK I (AA 6-553)): 500 to 5000 nM
- Ki [1]: < 500 nM

SMILES: COc1ccc(-c2c[nH]c3ncc(-c4ccc(F)cc4)cc23)cc1OC [Compound 222]
- Ki (ROCK I (AA 6-553)): < 500 nM
- Ki [1]: < 500 nM

SMILES: C[C@H](Nc1nc(-c2c[nH]c3ncc([N+](=O)[O-])cc23)ncc1F)c1ccc(F)cc1 [Compound 342]
- Ki (ROCK I (AA 6-553)): 500 to 5000 nM
- Ki [1]: < 500 nM
